Experimental data published in PubChem BioAssay (NCI).
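Interpolation was linear, between the two tested concentrations surrounding the appropriate level; five concentrations were tested over 48 hours in 96-well plates. GI50: concentration for 50% inhibition of growth. Definition used: TGI = concentration required for complete inhibition of growth.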

Key:
Experiment in all cases: NCI tumour cell line growth inhibition, 48 h
[1] = tested on: 786-0 renal
[2] = tested on: A498 renal
[3] = tested on: A549 NSCLC
[4] = tested on: ACHN renal
[5] = tested on: BT-549 breast
[6] = tested on: CCRF-CEM leukemia
[7] = tested on: COLO 205 colon
[8] = tested on: DU-145 prostate
[9] = tested on: EKVX NSCLC
[10] = tested on: HCC-2998 colon
[11] = tested on: HCT-116 colon
[12] = tested on: HCT-15 colon
[13] = tested on: HL-60(TB) leukemia
[14] = tested on: HOP-62 NSCLC
[15] = tested on: HOP-92 NSCLC
[16] = tested on: HS 578T breast
[17] = tested on: HT29 colon
[18] = tested on: IGROV1 ovarian
[19] = tested on: KM12 colon
[20] = tested on: LOX IMVI melanoma
[21] = tested on: M14 melanoma
[22] = tested on: MALME-3M melanoma
[23] = tested on: MCF7 breast
[24] = tested on: MDA-MB-231 breast
[25] = tested on: MDA-MB-435
[26] = tested on: MOLT-4 leukemia
[27] = tested on: NCI-H226 lung
[28] = tested on: NCI-H23 lung
[29] = tested on: NCI-H460 lung
[30] = tested on: NCI-H522 lung
[31] = tested on: NCI/ADR-RES ovarian
[32] = tested on: OVCAR-3 ovarian
[33] = tested on: OVCAR-4 ovarian
[34] = tested on: OVCAR-5 ovarian
[35] = tested on: OVCAR-8 ovarian
[36] = tested on: PC-3 prostate
[37] = tested on: RPMI-8226 leukemia
[38] = tested on: RXF 393 renal
[39] = tested on: SF-268 CNS
[40] = tested on: SF-295 CNS
[41] = tested on: SF-539 CNS
[42] = tested on: SK-MEL-2 melanoma
[43] = tested on: SK-MEL-28 melanoma
[44] = tested on: SK-MEL-5 melanoma
[45] = tested on: SK-OV-3 ovarian
[46] = tested on: SN12C renal
[47] = tested on: SNB-19 CNS
[48] = tested on: SNB-75 CNS
[49] = tested on: SR leukemia
[50] = tested on: SW-620 colon
[51] = tested on: T-47D breast
[52] = tested on: TK-10 renal
[53] = tested on: U251 CNS
[54] = tested on: UACC-257 melanoma
[55] = tested on: UACC-62 melanoma
[56] = tested on: UO-31 renal

COc1ccc(C(=O)/C=C/c2ccc(OCc3ccc(Cl)cc3)cc2)cc1OC
GI50 [1]: 71.2 µM | TGI [1]: 470 µM | GI50 [2]: 141 µM | TGI [2]: 604 µM | GI50 [3]: 77.1 µM | TGI [3]: > 1000 µM | GI50 [4]: 57.9 µM | TGI [4]: > 1000 µM | GI50 [5]: 81.8 µM | TGI [5]: 586 µM | GI50 [6]: 190 µM | TGI [6]: > 1000 µM | GI50 [7]: 253 µM | TGI [7]: > 1000 µM | GI50 [8]: 202 µM | TGI [8]: > 1000 µM | GI50 [9]: 66.4 µM | TGI [9]: > 1000 µM | GI50 [10]: 960 µM | TGI [10]: > 1000 µM | GI50 [11]: 40.8 µM | TGI [11]: > 1000 µM | GI50 [12]: 112 µM | TGI [12]: > 1000 µM | GI50 [13]: 65 µM | TGI [13]: 296 µM | GI50 [14]: 110 µM | TGI [14]: 419 µM | GI50 [15]: 44.5 µM | TGI [15]: 365 µM | GI50 [16]: 108 µM | TGI [16]: > 1000 µM | GI50 [17]: 163 µM | TGI [17]: > 1000 µM | GI50 [18]: 118 µM | TGI [18]: > 1000 µM | GI50 [19]: 171 µM | TGI [19]: > 1000 µM | GI50 [20]: 91.3 µM | TGI [20]: > 1000 µM | GI50 [21]: 150 µM | TGI [21]: > 1000 µM | GI50 [22]: 176 µM | TGI [22]: 639 µM | GI50 [23]: 47.4 µM | TGI [23]: > 1000 µM | GI50 [24]: 94.6 µM | TGI [24]: > 1000 µM | GI50 [25]: 150 µM | TGI [25]: > 1000 µM | GI50 [26]: 276 µM | TGI [26]: > 1000 µM | GI50 [27]: 63.1 µM | TGI [27]: 635 µM | GI50 [28]: 172 µM | TGI [28]: > 1000 µM | GI50 [29]: 68.6 µM | TGI [29]: > 1000 µM | GI50 [30]: 88.4 µM | TGI [30]: 351 µM | GI50 [31]: 109 µM | TGI [31]: > 1000 µM | GI50 [32]: 55.6 µM | TGI [32]: 230 µM | GI50 [33]: 44.2 µM | TGI [33]: 372 µM | GI50 [34]: 499 µM | TGI [34]: > 1000 µM | GI50 [35]: 54.8 µM | TGI [35]: 633 µM | GI50 [36]: 57.6 µM | TGI [36]: 435 µM | GI50 [37]: 98.4 µM | TGI [37]: 773 µM | GI50 [38]: 90.6 µM | TGI [38]: 502 µM | GI50 [39]: 159 µM | TGI [39]: > 1000 µM | GI50 [40]: 189 µM | TGI [40]: > 1000 µM | GI50 [41]: 159 µM | TGI [41]: > 1000 µM | GI50 [42]: 252 µM | TGI [42]: > 1000 µM | GI50 [43]: 366 µM | TGI [43]: > 1000 µM | GI50 [44]: 64.3 µM | TGI [44]: 264 µM | GI50 [45]: 142 µM | TGI [45]: 607 µM | GI50 [46]: 221 µM | TGI [46]: > 1000 µM | GI50 [47]: 42.7 µM | TGI [47]: 206 µM | GI50 [48]: 111 µM | TGI [48]: 484 µM | GI50 [49]: 148 µM | TGI [49]: > 1000 µM | GI50 [50]: 196 µM | TGI [50]: > 1000 µM | GI50 [51]: 71.9 µM | TGI [51]: > 1000 µM | GI50 [52]: 396 µM | TGI [52]: > 1000 µM | GI50 [53]: 58.8 µM | TGI [53]: 314 µM | GI50 [54]: 244 µM | TGI [54]: > 1000 µM | GI50 [55]: 76.8 µM | TGI [55]: 376 µM | GI50 [56]: 190 µM | TGI [56]: > 1000 µM
